Measurements: patent publication US6156700A, “3-(1,2-Benzisothiazol- and isoxazol-5-yl)-2,4(1H,3H)-pyrimidinedione or thione and 3-(1,2-benzisothiazol- and isoxazol-5-yl)-4(3H)-pyrimidinone or thione herbicidal agents” (American Cyanmid Company, priority 1998, dated 2000)

How the values were obtained:
[1] = test system: Morningglory Spp., Ipomoea Spp.; assay: Preemergence herbicidal evaluation, IPOSS; assay type: in vivo; details: 0.2500 kg/ha
Description: (§1) Results of herbicide evaluation are expressed on a rating scale (0-9). The scale is based upon a visual observation of plant stand, vigor, malformation, size, chlorosis and overall plant appearance as compared with a control.
(§2) The preemergence herbicidal activity of the test compounds of the present invention is exemplified by the following tests in which the seeds of a variety of monocotyledonous and dicotyledonous plants are separately mixed with potting soil and planted on top of approximately one inch of soil in separate pint cups. After planting, the cups are sprayed with the selected aqueous acetone solution containing test compound in sufficient quantity to provide the equivalent of about 0.0156 to 0.500 kg per hectare of test compound per cup. The treated cups are then placed on greenhouse benches, watered and cared for in accordance with conventional greenhouse procedures. From four to five weeks after treatment, the tests are terminated and each cup is examined and rated according to the rating system provided in Example 185.
(§3) The compounds evaluated are reported by compound number given in Example 185.

[2] = test system: Rice, Tebonnet, Oryza sativa; assay: Postemergence herbicidal evaluation, ORYSAT; assay type: in vivo, (L.) Tebonnet; details: 0.2500 kg/ha
Procedure, shortened: (§4)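 Plants were raised for roughly two weeks, then treated by spraying at 40 psi with test compound dispersed in 50/50 acetone/water with 0.5% TWEEN 20, giving about 0.0157 to 0.500 kg/ha. After four to five weeks in the greenhouse they were scored 0–9 against a control.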

[3] = test system: Wheat, Winter, cv Riband, Triticum aestivum; assay: Postemergence herbicidal evaluation, TRZAWR; assay type: in vivo; details: 0.2500 kg/ha
Procedure, shortened: as §4

[4] = test system: Rice, Tebonnet, Oryza sativa; assay: Preemergence herbicidal evaluation, ORYSAT; assay type: in vivo, (L.) Tebonnet; details: 0.2500 kg/ha
Description: as §1, §2, §3

[5] = test system: ECHORC Watergrass (Calif.); assay: Preemergence weed control, flooded paddy (Table III); assay type: in vivo, Echinochloa oryzoides; design: scale not given here
Method: (§5) Preemergence herbicidal activity under flooded paddy conditions is determined as follows: plant seeds or propagating organs are planted in the top 0.5 cm of silt loam soil in 32 oz. plastic containers with a diameter of 10.5 cm and no drainage holes. Water is added to these containers and maintained at 1.5 to 3 cm above the soil surface for the duration of the experiment. The test compounds are applied as aqueous/acetone mixtures 50/50 v/v pipetted directly into the flood water to give the equivalent of about 0.0313 to 0.500 kg/ha of active ingredient. The treated containers are placed on greenhouse benches and cared for in accordance with conventional greenhouse procedures. Three to four weeks after treatment, the test is terminated and each container is examined and herbicidal effect rated according to the rating system provided in Example 185. The compounds evaluated are reported by compound number given in Example 185.

[6] = test system: CYPSE Flatsedge; assay: Postemergence weed control, flooded paddy (Table IV); assay type: in vivo, Cyperus serotinus; design: scale not given here
Description: (§6) Plastic containers containing weeds which are 3 to 5 cm tall and rice seedlings at the 1.5 to 2.5 leaf stage are flooded with water. The water is maintained at 1.5 to 3 cm above the soil surface for the duration of the experiment. Test compounds are applied as aqueous/acetone mixtures 50/50 v/v directly into the flood water to provide the equivalent of about 0.0313 to 0.500 kg/ha of active ingredient. The treated containers are placed on greenhouse benches and cared for in accordance with conventional greenhouse procedures. Three to four weeks after treatment, the test is terminated and each container is examined and herbicidal effect rated according to the rating system provided in Example 185. The compounds evaluated are reported by compound number given in Example 185.

[7] = test system: ECHORC Watergrass (Calif.); assay: as above; assay type: in vivo, Echinochloa oryzoides; design: scale not given here
Description: as §6

[8] = test system: SAGPY Arrowhead (Pygmaea); assay: Preemergence weed control, flooded paddy (Table III); assay type: in vivo, Sagittaria pygmaea; design: scale not given here
Method: as §5

[9] = test system: Sicklepod, Cassia obtusifolia; assay: Postemergence herbicidal evaluation, CASOB; assay type: in vivo, L.; details: 0.2500 kg/ha
Procedure, shortened: as §4

[10] = test system: Sicklepod, Cassia obtusifolia; assay: Preemergence herbicidal evaluation, CASOB; assay type: in vivo, L.; details: 0.2500 kg/ha
Description: as §1, §2, §3

[11] = test system: Wheat, Winter, cv Riband, Triticum aestivum; assay: Preemergence herbicidal evaluation, TRZAWR; assay type: in vivo; details: 0.2500 kg/ha
Description: as §1, §2, §3

[12] = test system: CYPIR Rice Flatsedge; assay: Postemergence weed control, flooded paddy (Table IV); assay type: in vivo, Cyperus iria; design: scale not given here
Description: as §6

[13] = test system: ORYSAT Rice, Tebonnet; assay: Tolerance of transplanted rice to post-transplant application (Table III); assay type: in vivo, Oryza sativa; design: scale not given here; details: crop tolerance
Method: The tolerance of transplanted rice to post-transplanted herbicide applications is determined as follows: two ten-day-old rice seedlings (cv. Tebonnet) are transplanted into silt loam soil in 32 oz. plastic containers with a diameter of 10.5 cm and no drainage holes. After transplanting, the containers are flooded and the water level is maintained at 1.5 to 3 cm above the soil surface. Three days after transplanting, the flooded soil surface of the containers is treated with the selected aqueous/acetone 50/50 v/v mixture containing the test compounds to provide the equivalent of about 0.0313 to 0.500 kg/ha of active ingredient. The treated containers are placed on greenhouse benches, watered such that the water level is maintained as stated above, and cared for in accordance with conventional greenhouse procedures. Three to four weeks after treatment, the test is terminated and each container is examined and herbicidal effect rated according to the rating system provided in Example 185. The compounds evaluated are reported by compound number given in Example 185.

[14] = test system: Ragweed, Common, Ambrosia artemisifolia; assay: Preemergence herbicidal evaluation, AMBEL; assay type: in vivo, L.; details: 0.2500 kg/ha
Description: as §1, §2, §3

[15] = test system: Foxtail, Green, Setaria viridis; assay: Postemergence herbicidal evaluation, SETVI; assay type: in vivo, (L.) Beau; details: 0.2500 kg/ha
Procedure, shortened: as §4

Row | Structure (SMILES) | herbicide rating (0-9) [1] | herbicide rating (0-9) [2] | herbicide rating (0-9) [3] | herbicide rating (0-9) [4] | herbicidal effect rating ([5]; 0.0625 kg/ha) | herbicidal effect rating ([5]; 0.1250 kg/ha) | herbicidal effect rating ([5]; 0.2500 kg/ha) | herbicidal effect rating ([5]; 0.5000 kg/ha) | herbicidal effect rating ([6]; 0.5000 kg/ha) | herbicidal effect rating ([7]; 0.1250 kg/ha) | herbicidal effect rating ([7]; 0.2500 kg/ha) | herbicidal effect rating ([7]; 0.5000 kg/ha) | herbicidal effect rating ([8]; 0.0625 kg/ha) | herbicidal effect rating ([8]; 0.1250 kg/ha) | herbicidal effect rating ([8]; 0.2500 kg/ha) | herbicidal effect rating ([8]; 0.5000 kg/ha) | herbicide rating (0-9) [9] | herbicide rating (0-9) [10] | herbicide rating (0-9) [11] | herbicidal effect rating ([12]; 0.1250 kg/ha) | also measured
1 | Cc1cc(O)c(-c2nsc3ccc(-n4c(=O)cc(C(F)(F)F)n(C)c4=O)cc23)cc1C [Compound 11, 3-[3-(6-Hydroxy-3,4-xylyl)-1,2-benzisothiazol-5-yl]-1-methyl-6-(trifluoromethyl)-2,4(1H,3H)-pyrimidinedione] | 5.0 | 2.0 | 5.0 | 0.0 | 7.0 | 8.0 | 8.0 | 9.0 | 0.0 | 2.0 | 4.0 | 7.0 | 0.0 | 0.0 | 2.0 | 9.0 | 7.0 | 3.0 | 4.0 | 9.0 | herbicidal effect rating ([6]; 0.1250 kg/ha): 0.0; herbicidal effect rating ([6]; 0.2500 kg/ha): 0.0; herbicidal effect rating ([12]; 0.2500 kg/ha): 9.0; herbicidal effect rating ([12]; 0.5000 kg/ha): 9.0; herbicidal effect rating ([13]; 0.0625 kg/ha): 2.0; herbicidal effect rating ([13]; 0.1250 kg/ha): 2.0; herbicidal effect rating ([13]; 0.2500 kg/ha): 3.0; herbicidal effect rating ([13]; 0.5000 kg/ha): 3.0; herbicide rating (0-9) [14]: 9.0; herbicide rating (0-9) [15]: 8.0
2 | COC(=O)C(C)Oc1cc(C)c(C)cc1-c1nsc2ccc(-n3c(=O)cc(C(F)(F)F)n(C)c3=O)cc12 (stereo not shown) [Compound 13, Methyl 2-{{6-{5-[3,6-dihydro-3-methyl-4-(trifluoromethyl)-2,6-dioxo-1(2H)-pyrimidinyl]-1,2-benzisothiazol-3-yl}-3,4-xylyl}oxy}propionate] | 9.0 | 8.0 | 8.5 | 6.0 | 9.0 | 9.0 | 9.0 | 9.0 | 2.0 | 6.0 | 8.0 | 9.0 | 2.0 | 6.0 | 8.0 | 9.0 | 9.0 | 9.0 | 4.0 | 9.0 | herbicidal effect rating ([5]; 0.0313 kg/ha): 9.0; herbicidal effect rating ([6]; 0.1250 kg/ha): 2.0; herbicidal effect rating ([6]; 0.2500 kg/ha): 4.0; herbicidal effect rating ([8]; 0.0313 kg/ha): 0.0; herbicidal effect rating ([12]; 0.2500 kg/ha): 9.0; herbicidal effect rating ([12]; 0.5000 kg/ha): 9.0; herbicidal effect rating ([13]; 0.0313 kg/ha): 4.0; herbicidal effect rating ([13]; 0.0625 kg/ha): 6.0; herbicidal effect rating ([13]; 0.1250 kg/ha): 7.0; herbicidal effect rating ([13]; 0.2500 kg/ha): 7.0; herbicidal effect rating ([13]; 0.5000 kg/ha): 9.0; herbicide rating (0-9) [14]: 9.0; herbicide rating (0-9) [15]: 9.0
3 | COC(=O)COc1cc(C)ccc1-c1nsc2ccc(-n3c(=O)cc(C(F)(F)F)n(C)c3=O)cc12 [Compound 8, Methyl {{6-{5-[3,6-dihydro-3-methyl-4-(trifluoromethyl)-2,6-dioxo-1(2H)-pyrimidinyl]-1,2-benzisothiazol-3-yl}-m-tolyl}oxy}acetate] | 9.0 | 8.5 | 9.0 | 9.0 | 9.0 | 9.0 | 9.0 | 9.0 | 9.0 | 9.0 | 9.0 | 9.0 | 9.0 | 9.0 | 9.0 | 9.0 | 9.0 | 9.0 | 9.0 | 9.0 | herbicidal effect rating ([5]; 0.0313 kg/ha): 9.0; herbicidal effect rating ([6]; 0.1250 kg/ha): 7.0; herbicidal effect rating ([6]; 0.2500 kg/ha): 7.0; herbicidal effect rating ([8]; 0.0313 kg/ha): 6.0; herbicidal effect rating ([12]; 0.2500 kg/ha): 9.0; herbicidal effect rating ([12]; 0.5000 kg/ha): 9.0; herbicidal effect rating ([13]; 0.0313 kg/ha): 7.0; herbicidal effect rating ([13]; 0.0625 kg/ha): 7.0; herbicidal effect rating ([13]; 0.1250 kg/ha): 9.0; herbicidal effect rating ([13]; 0.2500 kg/ha): 9.0; herbicidal effect rating ([13]; 0.5000 kg/ha): 9.0; herbicide rating (0-9) [14]: 9.0; herbicide rating (0-9) [15]: 9.0
4 | COC(=O)COc1cc(C)c(C)cc1-c1nsc2ccc(-n3c(=O)cc(C(F)(F)F)n(C)c3=O)cc12 [Compound 12, Methyl {{6-{5-[3,6-dihydro-3-methyl-4-(trifluoromethyl)-2,6-dioxo-1(2H)-pyrimidinyl]-1,2-benzisothiazol-3-yl}-3,4-xylyl}oxy}acetate] | 9.0 | 9.0 | 9.0 | 7.0 | 9.0 | 9.0 | 9.0 | 9.0 | 2.0 | 6.0 | 9.0 | 9.0 | 2.0 | 4.0 | 9.0 | 9.0 | 9.0 | 9.0 | 5.0 | 9.0 | herbicidal effect rating ([5]; 0.0313 kg/ha): 9.0; herbicidal effect rating ([8]; 0.0313 kg/ha): 0.0; herbicidal effect rating ([12]; 0.2500 kg/ha): 9.0; herbicidal effect rating ([12]; 0.5000 kg/ha): 9.0; herbicidal effect rating ([13]; 0.0313 kg/ha): 4.0; herbicidal effect rating ([13]; 0.0625 kg/ha): 7.0; herbicidal effect rating ([13]; 0.1250 kg/ha): 7.0; herbicidal effect rating ([13]; 0.2500 kg/ha): 8.0; herbicidal effect rating ([13]; 0.5000 kg/ha): 9.0; herbicide rating (0-9) [14]: 9.0; herbicide rating (0-9) [15]: 9.0
